Laboratory results taken from patent US5872015A, “Molecular diversity screening method” (Board of Trustees of the University of Illinois, priority 1996, dated 1999).

Columns and labels:
[1] = molecular target: T1, Calf intestinal adenosine deaminase (Bos taurus, UniProt P56658)
T1 sequence (P56658 1-363): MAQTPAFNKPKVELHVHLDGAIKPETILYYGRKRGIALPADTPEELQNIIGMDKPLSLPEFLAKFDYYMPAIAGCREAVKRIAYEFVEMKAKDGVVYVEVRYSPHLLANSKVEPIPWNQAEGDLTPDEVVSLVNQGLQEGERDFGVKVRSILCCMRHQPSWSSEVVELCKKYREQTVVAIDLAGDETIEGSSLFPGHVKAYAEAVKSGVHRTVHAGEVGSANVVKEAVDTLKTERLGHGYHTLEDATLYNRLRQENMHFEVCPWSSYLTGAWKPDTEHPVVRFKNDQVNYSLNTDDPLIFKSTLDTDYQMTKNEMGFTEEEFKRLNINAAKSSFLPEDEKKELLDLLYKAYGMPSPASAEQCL
Protocol: Calf intestinal adenosine deaminase (or another type of adenosine deaminase) is loaded into the molecular diversity screening device (equipped with a 10,000 molecular weight cutoff membrane) to a concentration of approximately 10 nM. A library of 20 adenosine analogs was prepared including the natural substrate for adenosine deaminase, adenosine (See list of compounds in Table 1).
Next, the adenosine analog library was mixed with adenosine deaminase (in a 1:1 molar ratio) in 33 mM ammonium acetate buffer at pH 7.4, and an aliquot was injected into the molecular diversity screening device to achieve a concentration of adenosine deaminase of approximately 10 nM. After flushing the binding chamber with water at 100 μL/min for 12 min, to wash out library compounds with low affinity for adenosine deaminase, methanol/water (50:50) was pumped through the chamber at 50 μL/min. The latter procedure should perturb binding of any remaining compounds bound to the adenosine deaminase and release them into the detector.

[2] = molecular target: T1, Calf intestinal adenosine deaminase; experiment: Selective identification of adenosine deaminase binders from a synthetic library of EHNA-type analogs (ultrafiltration, electrospray MS); assay type: binding; conditions: for detected eluting from the device in the recovery phase: scan mode, positive ion electrospray MS, ADA 7.35 μM, approximately 10 nM each analog, pH 7.4, methanol/water 90:10; for presence of ion in the recovery phase in the presence of ADA / binding to ADA in the presence of a five-fold excess of EHNA: single ion monitoring mode; for presence of ion in the recovery phase in the presence of ADA: with ADA (FIG. 11B); for binding to ADA in the presence of a five-fold excess of EHNA: with ADA and five-fold excess of authentic EHNA (FIG. 11C)
[3] = tested on: adenosine deaminase (ADA); conditions: EHNA 2×10^-8 M continuous influx; ADA 10^-7 M; 33 mM ammonium acetate; release by 25 μL MeOH, three cases
Protocol: At about 10 min, 25 μL of MeOH is injected into the binding chamber resulting in an increase in EHNA--the first peak on the left. This signal is due to an enhanced sensitivity of the detector to EHNA in the presence of MeOH and/or due to release of non-specifically bound EHNA from the device and its parts. At about 40 min, the receptor ADA, in 33 mM ammonium acetate buffer, is introduced into the binding chamber until a receptor concentration of 10^-7 M is reached. […] At about 90 min, 25 μL of MeOH is again introduced to perturb binding and release of EHNA is observed. […] This process is repeated a third time at about 180 min. […] At about 230 min the ADA is removed from the binding chamber by opening the binding chamber wash port 9.

[4] = molecular target: adenosine deaminase (ADA); conditions: cited from earlier work
bovine serum albumin = experiment: Extraction of pentachlorophenol by bovine serum albumin in the molecular diversity screening device (pulsed ultrafiltration, electrospray MS); assay type: binding
Protocol: The receptor concentration is chosen to be about 100 times the smallest dissociation constant being sought. […] The binding chamber is then washed with binding buffer (i.e., 100 Mm ammonium acetate at Ph 7.4) at 100 μL/min to wash out any low molecular weight impurities. The compound, in this case pentachlorophenol (equimolar or less with respect to the serum albumin in the binding chamber) is then injected into the binding chamber, and elution of pentachlorophenol is monitored using an appropriate detector such as UV absorbance or an electrospray mass spectrometer. An example of the extraction of pentachlorophenol from a binding buffer by bovine serum albumin is shown in FIG. 7 using electrospray mass spectrometric detection.
When pentachlorophenol is injected into the binding chamber without serum albumin present, an abundant peak is detected by the mass spectrometer as pentachlorophenol flows through the device unimpeded (FIG. 7, solid curve). […] Retention of pentachlorophenol in the binding chamber corresponds to tight binding to serum albumin under the predicted concentrations.

serum albumin = conditions: albumin-pentachlorophenol; read-out: dissociation constant; cited from earlier work

SMILES | detected eluting from the device in the recovery phase [2] | presence of ion in the recovery phase in the presence of ADA [2] | binding to ADA in the presence of a five-fold excess of EHNA [2] | further results
CCCCCC[C@H]([C@H](C)O)n1cnc2c(N)ncnc21 (relative stereo) [EHNA, erythro-9-(2-hydroxy-3-nonyl)adenine] | detected | present | – | detected eluting from the binding chamber on release with methanol/water (50:50) ([1]; ADA approximately 10 nM, 33 mM ammonium acetate pH 7.4, EHNA at 20-fold lower concentration than other compounds): detected; affinity for adenosine deaminase within the library ([1]; library of 20 adenosine analogs): highest affinity; binding to and release from ADA [3]: released after being bound to the ADA; Kd ([4]; read-out: dissociation constant, North, et al., 1979): 7 nM; Ki ([4]; read-out: inhibitor dissociation constant, potent inhibitor of adenosine deaminase, no source given): 2 nM
CC(O)C(Cc1ccccc1)n1cnc2c(N)ncnc21 (centres unmarked) [benzylic] | not detected | did not appear | – | –
Oc1c(Cl)c(Cl)c(Cl)c(Cl)c1Cl [pentachlorophenol] | – | – | – | extraction from the solution by the albumin receptor molecule (bovine serum albumin; 100 mM ammonium acetate pH 7.4, unstirred 100 μL chamber, albumin approximately 1 μM): almost completely extracted; pentachlorophenol detected by the mass spectrometer after injection with albumin loaded (bovine serum albumin; bovine serum albumin in chamber (FIG. 7, dashed curve)): only a trace; Kd (serum albumin): ~10 nM
CCCCCCCCC(C(C)O)n1cnc2c(N)ncnc21 (centres unmarked) [nC7 H15] | detected | present | suppressed | –
CCCCCCCCCCC(C(C)O)n1cnc2c(N)ncnc21 (centres unmarked) [nC10 H21] | detected | present | suppressed | –
CC(C)CC(C(C)O)n1cnc2c(N)ncnc21 (centres unmarked) [isobutyl] | not detected | did not appear | – | –
